# Test results published in PubChem BioAssay (NCI).
#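 Results reflect a 48-hour exposure of cells in 96-well plates to compound at five concentrations. The concentration for full growth arrest is given as TGI.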
# Experiments:
# Assay in all cases: DTP human tumour cell line panel, 48 h
# MDA-MB-435 = tested on: MDA-MB-435
# SN12C renal = tested on: SN12C renal
# HT29 colon = tested on: HT29 colon
# NCI/ADR-RES ovarian = tested on: NCI/ADR-RES ovarian
# SF-539 CNS = tested on: SF-539 CNS
# UACC-257 melanoma = tested on: UACC-257 melanoma
# U251 CNS = tested on: U251 CNS
# MCF7 breast = tested on: MCF7 breast
# HOP-92 NSCLC = tested on: HOP-92 NSCLC
# OVCAR-4 ovarian = tested on: OVCAR-4 ovarian
# SF-295 CNS = tested on: SF-295 CNS
# SNB-75 CNS = tested on: SNB-75 CNS
# A498 renal = tested on: A498 renal
# EKVX NSCLC = tested on: EKVX NSCLC
# MDA-N = tested on: MDA-N
# MDA-MB-231 breast = tested on: MDA-MB-231 breast
# SK-MEL-2 melanoma = tested on: SK-MEL-2 melanoma
# T-47D breast = tested on: T-47D breast
# COLO 205 colon = tested on: COLO 205 colon
# OVCAR-3 ovarian = tested on: OVCAR-3 ovarian
# HS 578T breast = tested on: HS 578T breast
# MOLT-4 leukemia = tested on: MOLT-4 leukemia
# NCI-H226 lung = tested on: NCI-H226 lung
# KM12 colon = tested on: KM12 colon
# SR leukemia = tested on: SR leukemia
# SK-MEL-5 melanoma = tested on: SK-MEL-5 melanoma
# PC-3 prostate = tested on: PC-3 prostate
# RPMI-8226 leukemia = tested on: RPMI-8226 leukemia
# NCI-H522 lung = tested on: NCI-H522 lung
# HCT-15 colon = tested on: HCT-15 colon
# DU-145 prostate = tested on: DU-145 prostate
# NCI-H460 lung = tested on: NCI-H460 lung
# TK-10 renal = tested on: TK-10 renal
# BT-549 breast = tested on: BT-549 breast
# CCRF-CEM leukemia = tested on: CCRF-CEM leukemia
# M14 melanoma = tested on: M14 melanoma
# RXF 393 renal = tested on: RXF 393 renal
# HL-60(TB) leukemia = tested on: HL-60(TB) leukemia
# LOX IMVI melanoma = tested on: LOX IMVI melanoma
# HOP-62 NSCLC = tested on: HOP-62 NSCLC
# HCT-116 colon = tested on: HCT-116 colon
# SW-620 colon = tested on: SW-620 colon
# CAKI-1 renal = tested on: CAKI-1 renal
# UACC-62 melanoma = tested on: UACC-62 melanoma
# SNB-19 CNS = tested on: SNB-19 CNS
# HCC-2998 colon = tested on: HCC-2998 colon
# UO-31 renal = tested on: UO-31 renal
# K-562 leukemia = tested on: K-562 leukemia
# ACHN renal = tested on: ACHN renal
# 786-0 renal = tested on: 786-0 renal
# SK-OV-3 ovarian = tested on: SK-OV-3 ovarian
# NCI-H23 lung = tested on: NCI-H23 lung
# OVCAR-8 ovarian = tested on: OVCAR-8 ovarian
# SK-MEL-28 melanoma = tested on: SK-MEL-28 melanoma
# A549 NSCLC = tested on: A549 NSCLC
# MALME-3M melanoma = tested on: MALME-3M melanoma
# OVCAR-5 ovarian = tested on: OVCAR-5 ovarian
# SF-268 CNS = tested on: SF-268 CNS
# IGROV1 ovarian = tested on: IGROV1 ovarian
compound,measurement,setting,value
Cc1cc(C)c(C[C@H]2COC(=O)[C@]2(O)Cc2c(C)cc(C)cc2C)c(C)c1,TGI,MDA-MB-435,37 µM
same,TGI,SN12C renal,36.8 µM
same,TGI,HT29 colon,> 100 µM
same,TGI,NCI/ADR-RES ovarian,39.1 µM
same,TGI,SF-539 CNS,74.4 µM
same,TGI,UACC-257 melanoma,34.6 µM
same,TGI,U251 CNS,38.4 µM
same,TGI,MCF7 breast,34 µM
same,TGI,HOP-92 NSCLC,29.7 µM
same,TGI,OVCAR-4 ovarian,28.3 µM
same,TGI,SF-295 CNS,34.1 µM
same,TGI,SNB-75 CNS,43.6 µM
same,TGI,A498 renal,30.9 µM
same,TGI,EKVX NSCLC,28.2 µM
same,TGI,MDA-N,44.4 µM
same,TGI,MDA-MB-231 breast,35.9 µM
same,TGI,SK-MEL-2 melanoma,40.2 µM
same,TGI,T-47D breast,25.2 µM
same,TGI,COLO 205 colon,40.3 µM
same,TGI,OVCAR-3 ovarian,31.3 µM
same,TGI,HS 578T breast,38.5 µM
same,TGI,MOLT-4 leukemia,> 100 µM
same,TGI,NCI-H226 lung,33.7 µM
same,TGI,KM12 colon,37.1 µM
same,TGI,SR leukemia,> 100 µM
same,TGI,SK-MEL-5 melanoma,39.6 µM
same,TGI,PC-3 prostate,32.1 µM
same,TGI,RPMI-8226 leukemia,77.7 µM
same,TGI,NCI-H522 lung,34.4 µM
same,TGI,HCT-15 colon,36.2 µM
same,TGI,DU-145 prostate,31.9 µM
same,TGI,NCI-H460 lung,33.3 µM
same,TGI,TK-10 renal,37.6 µM
same,TGI,BT-549 breast,35.2 µM
same,TGI,CCRF-CEM leukemia,> 100 µM
same,TGI,M14 melanoma,36.3 µM
same,TGI,RXF 393 renal,25.4 µM
same,TGI,HL-60(TB) leukemia,42.4 µM
same,TGI,LOX IMVI melanoma,36.1 µM
same,TGI,HOP-62 NSCLC,35.8 µM
same,TGI,HCT-116 colon,43 µM
same,TGI,SW-620 colon,53.8 µM
same,TGI,CAKI-1 renal,34.6 µM
same,TGI,UACC-62 melanoma,28.5 µM
same,TGI,SNB-19 CNS,39.4 µM
same,TGI,HCC-2998 colon,30.7 µM
same,TGI,UO-31 renal,38.4 µM
same,TGI,K-562 leukemia,> 100 µM
same,TGI,ACHN renal,35.7 µM
same,TGI,786-0 renal,38.5 µM
same,TGI,SK-OV-3 ovarian,34.2 µM
same,TGI,NCI-H23 lung,47.2 µM
same,TGI,OVCAR-8 ovarian,45.2 µM
same,TGI,SK-MEL-28 melanoma,76.5 µM
same,TGI,A549 NSCLC,34 µM
same,TGI,MALME-3M melanoma,29.9 µM
same,TGI,OVCAR-5 ovarian,35.9 µM
same,TGI,SF-268 CNS,30 µM
CCn1sc2ccccc2c1=O,TGI,MDA-MB-435,5.82 µM
same,TGI,SN12C renal,22.7 µM
same,TGI,HT29 colon,34 µM
same,TGI,NCI/ADR-RES ovarian,69.3 µM
same,TGI,SF-539 CNS,30.8 µM
same,TGI,UACC-257 melanoma,32.7 µM
same,TGI,U251 CNS,16.1 µM
same,TGI,MCF7 breast,26.8 µM
same,TGI,HOP-92 NSCLC,22.5 µM
same,TGI,OVCAR-4 ovarian,89.8 µM
same,TGI,SF-295 CNS,> 55.1 µM
same,TGI,SNB-75 CNS,26.6 µM
same,TGI,A498 renal,> 60 µM
same,TGI,EKVX NSCLC,38.2 µM
same,TGI,MDA-N,8.99 µM
same,TGI,MDA-MB-231 breast,27.2 µM
same,TGI,SK-MEL-2 melanoma,53.9 µM
same,TGI,T-47D breast,35.2 µM
same,TGI,COLO 205 colon,29.3 µM
same,TGI,OVCAR-3 ovarian,29.7 µM
same,TGI,HS 578T breast,32.4 µM
same,TGI,MOLT-4 leukemia,> 100 µM
same,TGI,NCI-H226 lung,50.7 µM
same,TGI,KM12 colon,18.8 µM
same,TGI,SR leukemia,> 100 µM
same,TGI,SK-MEL-5 melanoma,25 µM
same,TGI,PC-3 prostate,29.3 µM
same,TGI,RPMI-8226 leukemia,> 100 µM
same,TGI,NCI-H522 lung,5.32 µM
same,TGI,HCT-15 colon,27.5 µM
same,TGI,DU-145 prostate,49.6 µM
same,TGI,NCI-H460 lung,> 100 µM
same,TGI,TK-10 renal,30.9 µM
same,TGI,BT-549 breast,25.7 µM
same,TGI,CCRF-CEM leukemia,> 48.2 µM
same,TGI,IGROV1 ovarian,19.6 µM
same,TGI,M14 melanoma,12 µM
same,TGI,RXF 393 renal,11.7 µM
same,TGI,HL-60(TB) leukemia,13 µM
same,TGI,LOX IMVI melanoma,7.73 µM
same,TGI,HOP-62 NSCLC,34.3 µM
same,TGI,HCT-116 colon,30.7 µM
same,TGI,SW-620 colon,> 58.4 µM
same,TGI,CAKI-1 renal,11.4 µM
same,TGI,UACC-62 melanoma,29.5 µM
same,TGI,SNB-19 CNS,32.9 µM
same,TGI,HCC-2998 colon,34 µM
same,TGI,K-562 leukemia,> 100 µM
same,TGI,ACHN renal,20.5 µM
same,TGI,786-0 renal,6.87 µM
same,TGI,SK-OV-3 ovarian,> 54.9 µM
same,TGI,NCI-H23 lung,34.7 µM
same,TGI,OVCAR-8 ovarian,35.8 µM
same,TGI,SK-MEL-28 melanoma,36 µM
same,TGI,A549 NSCLC,40.4 µM
same,TGI,MALME-3M melanoma,39.6 µM
same,TGI,OVCAR-5 ovarian,> 27.5 µM
same,TGI,SF-268 CNS,34.6 µM
